According to patent US9896418B2, “Aryl ethers and uses thereof” (Peloton Therapeutics, Inc., priority 2013, dated 2018):

These molecules were tested on HIF-2α HIS TAG-PASB Domain (assay: HIF-2α Scintillation Proximity Assay (SPA)).
Type: binding
Experimental: The percent inhibition was determined and IC50 values were calculated using the Dotmatics system based on the following equation: % inhibition=[(high control−sample)/(high control−low control)]×100.
For `CS(=O)(=O)c1ccc(Oc2cc(F)cc(Br)c2)c2c1[C@H](O)C(F)(F)C2` [Example 304, (S)-4-(3-bromo-5-fluorophenoxy)-2,2-difluoro-7-(methylsulfonyl)-2,3-dihydro-1H-inden-1-ol], the IC50 was < 5 nM. `CS(=O)(=NC#N)c1ccc(Oc2cc(F)cc(F)c2)c2c1C(O)C(F)(F)C2` (stereo not shown) [Example 191, N-((7-(3,5-difluorophenoxy)-2,2-difluoro-3-hydroxy-2,3-dihydro-1H-inden-4-yl)(methyl)(oxo)-λ^6-sulfanylidene)cyanamide] was tested, and the IC50 was < 5 nM. In the case of `O=S(=O)(c1ccc(Oc2ccc(Cl)c(Cl)c2)c(Br)c1)C(F)(F)F` [Compound 169, 2-Bromo-1-(3,4-dichlorophenoxy)-4-((trifluoromethyl)sulfonyl)benzene], the IC50 is reported as 1900 nM. For `N#Cc1cc(F)cc(Oc2ccc(S(=O)(=O)C(F)F)cc2Br)c1` [Compound 132, 3-(2-Bromo-4-((difluoromethyl)sulfonyl)phenoxy)-5-fluorobenzonitrile], the IC50 was 310 nM. `CS(=O)(=NC#N)c1ccc(Oc2cncc(C#N)c2)c2c1[C@H](O)C(F)(F)[C@@H]2F` (single isomer, unassigned) [Compound 319] showed an IC50 of 14 nM. Molecule `CC(O)c1c(S(=O)(=O)C(F)(F)F)ccc(Oc2cc(F)cc(Cl)c2)c1Br` (stereo not shown) [Compound 103, 1-(2-Bromo-3-(3-chloro-5-fluorophenoxy)-6-((trifluoromethyl)sulfonyl)phenyl)ethan-1-ol] has an IC50 of 300 nM. `O=S(=O)(c1ccc(Oc2cc(F)c[n+]([O-])c2)c2c1[C@H](O)C(F)(F)C2)C(F)(F)F` [Example 310, (S)-3-((2,2-difluoro-1-hydroxy-7-((trifluoromethyl)sulfonyl)-2,3-dihydro-1H-inden-4-yl)oxonio)-5-fluoropyridine 1-oxide] showed an IC50 of 16 nM. `CS(=O)(=O)c1ccc(Oc2cc(F)cc(C#N)c2)c2c1[C@H](N)C(F)(F)[C@@H]2F` [Compound 346] gave an IC50 of 515 nM. `N#Cc1cncc(Oc2ccc(S(=O)(=O)C(F)F)c3c2CC[C@H]3O)c1` [Compound 4, (R)-5-((7-((Difluoromethyl)sulfonyl)-1-hydroxy-2,3-dihydro-1H-inden-4-yl)oxy)nicotinonitrile] gave an IC50 of 3300 nM. `CS(=O)(=O)c1ccc(Oc2cncc(Cl)c2)c2c1[C@H](O)C(F)(F)[C@H]2F` [Compound 332, (1S,3S)-4-((5-chloropyridin-3-yl)oxy)-2,2,3-trifluoro-7-(methylsulfonyl)-2,3-dihydro-1H-inden-1-ol] gave an IC50 of 2330 nM. For `O=S(=O)(c1ccc(Oc2cncc(Cl)c2)c2c1[C@H](O)CC2)C(F)F` [Compound 3, (R)-4-((5-chloropyridin-3-yl)oxy)-7-((difluoromethyl)sulfonyl)-2,3-dihydro-1H-inden-1-ol], the IC50 was 340 nM. In the case of `N#Cc1cncc(Oc2ccc(S(=O)(=O)CF)c3c2[C@H](F)C(F)(F)[C@H]3O)c1` [Compound 345, 5-(((1S,3S)-2,2,3-trifluoro-7-((fluoromethyl)sulfonyl)-1-hydroxy-2,3-dihydro-1H-inden-4-yl)oxy)nicotinonitrile], the IC50 is reported as 2180 nM. Molecule `N#Cc1cc(F)cc(Oc2ccc(S(=O)(=O)C(F)F)c(C#N)c2Br)c1` [Compound 77, 2-Bromo-3-(3-cyano-5-fluorophenoxy)-6-((difluoromethyl)sulfonyl)benzonitrile] has an IC50 of 1900 nM. With `C[S+]([O-])c1ccc(Oc2cc(F)cc(C#N)c2)c2c1[C@H](O)C(F)(F)C2` (stereo partly drawn) [Compound 272, 3-[(1S)-2,2-Difluoro-1-hydroxy-7-methylsulfinyl-indan-4-yl]oxy-5-fluoro-benzonitrile] the IC50 was 2000 nM. `O=S(=O)(c1ccc(Oc2cc(F)c(F)c3[nH]ncc23)c2c1C(O)C(F)(F)C2)C(F)(F)F` (stereo not shown) [Compound 261, 4-((6,7-Difluoro-1H-indazol-4-yl)oxy)-2,2-difluoro-7-((trifluoromethyl)sulfonyl)-2,3-dihydro-1H-inden-1-ol] showed an IC50 of 640 nM. For `N#Cc1c(S(=O)(=O)C(F)(F)F)ccc(Oc2cc(F)cc(Cl)c2)c1Br` [Compound 98, 2-Bromo-3-(3-chloro-5-fluorophenoxy)-6-((trifluoromethyl)sulfonyl)benzonitrile], the IC50 was 15 nM.
